From patent US10159676B2, “Induction of tumor hypoxia for cancer therapy” (Virginia Commonwealth University, priority 2008, dated 2018)

Experiments:
[1] = system: stage IV non-small cell lung cancer; conditions: cited from earlier work
hypoxic cells = conditions: cited from earlier work
tumor = conditions: tirapazamine alone given at 70 mg/kg; cited from earlier work
[2] = cited from earlier work
[3] = Weight loss in multiple dosing xenograft study; assay type: in vivo, nude mice; conditions: day 14; tirapazamine 60 mg/kg ip days 8, 10, 12 (alone or with stilbene 5c 50 mg/kg)
Experimental: Next we measured the size of tumor xenografts after multiple dosing. Nude mice were injected subcutaneously with UCI-101 cells and tumor became visible after day 7. Treatment was administered by intraperitoneal injection on days 8, 10 and 12 with 6 mice in each group. […] […]. […].

UCI-101 tumor xenografts = test: Tumor xenograft size after multiple dosing (days 8, 10, 12); assay type: in vivo, nude mice; conditions: ip on days 8, 10 and 12; stilbene 5c 50 mg/kg, tirapazamine 60 mg/kg; day 14; 6 mice per group
Experimental: The long and short axes of tumor were measured to calculate tumor size and plotted against days. Each treatment group contains 6 mice.
Mice were then sacrificed at day 14. The long and short axes of tumors were measured to calculate tumor size and plotted against days. Each treatment group contains 6 mice.
Tumor cell lines used in this study include UCI-101 ovarian cancer cells and Hep3B hepatocellular carcinoma cells. Cells are grown in IMEM and DMEM, respectively, supplemented with 10% fetal bovine serum, glutamine, and penicillium/streptomycin in 5% CO2 humidified environment. When cells were grown to 80% confluent, cells were harvested with 1% trypsin and washed with phosphate-buffered saline three times before injected subcutaneously into nude mice. For mouse xenograft studies, 2×10^6 tumor cells were injected in the back subcutaneously. Nude mice were purchased from NCI Development Therapeutic Program as described. Tumor size was monitored by long and short axes (a and b, respectively) by a caliber and tumor volume was calculated by the formula ab^2/2. […] Treatment with AAA bevacizumab was done by tail vein injection at a dose of 10 mg/kg.
Next we measured the size of tumor xenografts after multiple dosing. Nude mice were injected subcutaneously with UCI-101 cells and tumor became visible after day 7. […] Tumor xenografts were measured and sizes are plotted in FIG. 7.

[4] = in vivo; cited from earlier work
UCI-101 tumor xenograft = test: Tumor growth, stilbene 5c with or without bevacizumab; assay type: in vivo, nude mice; conditions: stilbene 5c 20 mg/kg/day Monday to Friday for two weeks; bevacizumab 10 mg/kg twice a week for 5 doses
Experimental: FIG. 4. Efficacy of stilbene 5c in vivo and enhanced effect by bevacizumab. Nude mice were injected with UCI-101 cells subcutaneously and mice are treated with stilbene 5c at 20 mg/kg/day Monday-Friday with or without bevacizumab 10 mg/kg twice a week. Tumor volume was calculated by the long and short axes. Each group contains 8 mice and the average tumor volumes and standard deviations were plotted against days.
Tumor cell lines used in this study include UCI-101 ovarian cancer cells and Hep3B hepatocellular carcinoma cells. Cells are grown in IMEM and DMEM, respectively, supplemented with 10% fetal bovine serum, glutamine, and penicillium/streptomycin in 5% CO2 humidified environment. When cells were grown to 80% confluent, cells were harvested with 1% trypsin and washed with phosphate-buffered saline three times before injected subcutaneously into nude mice. For mouse xenograft studies, 2×10^6 tumor cells were injected in the back subcutaneously. Nude mice were purchased from NCI Development Therapeutic Program as described. Tumor size was monitored by long and short axes (a and b, respectively) by a caliber and tumor volume was calculated by the formula ab^2/2. […]. Treatment with AAA bevacizumab was done by tail vein injection at a dose of 10 mg/kg.
Next we used ovarian cancer UCI101 cells to study the in vivo efficacy of stilbene 5c We first administered stilbene 5c with intraperitoneal injection at 25 mg/kg three times a week. Tumor volume was calculated by measuring the long and short axes. […] The failure could be due to the possibility that intermittent dosing leaves a viable rim of tumor, which survives the treatment of VDAs by getting nutritional and blood support from surrounding normal vasculature. When treatment with VDAs is stopped, the viable rim of tumor grows quickly. Tumor vasculature recovers quickly by recruitment of the mobilized endothelial progenitor cells. Based on this rationale, we combined stilbene 5c with bevacizumab, which was used to neutralize VEGF secreted by UCI-101 tumor cells. […]

[5] = in vivo; cited from earlier work; remark: listed apart in the source
[6] = phase I, intravenous every three weeks

| Compound | response rate, overall survival, or progression free survival ([1]; tirapazamine 260-330 mg/m^2 added to carboplatin and paclitaxel vs placebo) | systemic toxicity ([1]; tirapazamine added to carboplatin and paclitaxel vs placebo) | greater toxicity to hypoxic cells compared to well-oxygenated cells (hypoxic cells) | tumor growth suppression (tumor) | tolerated dose, tirapazamine by itself ([2]; phase I and phase II trials) | dose with dose limiting toxicities (reversible ototoxicity and transient visual abnormality) [2, 6] | maximum tolerated dose (MTD) [2, 6] [mg/m^2] | weight loss [3] [%] | size of tumor compared with the control (UCI-101 tumor xenografts) | potential side effects in animal studies [4] | tumor growth suppression (UCI-101 tumor xenograft) | half-life [5] |
| --- | --- | --- | --- | --- | --- | --- | --- | --- | --- | --- | --- | --- |
| Nc1n[n+]([O-])c2ccccc2[n+]1[O-] [tirapazamine, 3-amino-1,2,4-benzotriazine-1,4-di-N-oxide] | no benefit | increased systemic toxicity | 15-200 fold | no effect | up to 390 mg/m^2 | above 330 mg/m^2 | 390 | 20 | about 50% | bone marrow toxicity, necrosis of the olfactory nerve, and retinal degeneration | – | – |
| bevacizumab: a monoclonal antibody against vascular endothelial growth factor (VEGF) [reference compound] | – | – | – | – | – | – | – | – | – | – | about 25% | over 7 days |
